Patent publication US10307386B2 (priority 2007, dated 2019)

How the values were obtained:
[1] = tested on: obese individuals with NASH; conditions: treated for 4-12 weeks; no reported change in body mass index; cited from earlier work
[2] = tested on: New Zealand white rabbits fed a high-fat diet (HFD); experiment: Pilot study: 7-day intraperitoneal cysteamine in rabbits fed a high-fat diet (NAFLD model); type: in vivo, rabbit; conditions: for mean LDL-cholesterol value: control HFD 272.5 mg/dL; for mean total cholesterol value: control HFD 842 mg/dL; for mean LDH value: control HFD 190 U/L; for increase in LDL-cholesterol compared to baseline values: control HFD about 29-fold; for increase in total cholesterol over baseline value: control HFD approximately 20-fold; for decrease in LDH compared to baseline values: control HFD increased 1.7-fold
Excerpt: (§1) J. Pathol., 170(3):967-980 (2007). Male New Zealand white rabbits were fed a high-fat diet (HFD) containing 20% corn oil and 1.25% cholesterol in order to induce clinical and histological features characteristic of NAFLD and non-alcoholic steatohepatitis (NASH).
Endpoints included daily standard clinical observations, quantitative daily food consumption, body weights on Study Day (SD) −1, 2, 5, and 8 (day of necropsy), and blood samples collected on SD-1 and SD8 for the evaluation of selected clinical chemistries (alanine aminotransferase (ALT), aspartate aminotransferase (AST), amylase, lipase, total cholesterol, triglycerides, lactate dehydrogenase (LDH), high density lipoprotein cholesterol (HDL-cholesterol), and low density lipoprotein cholesterol (LDL-cholesterol)) and a full hematology panel. Animals were sacrificed on SD8.

[3] = tested on: New Zealand white rabbits fed a high fat diet (HFD); experiment: 8-week study: cysteamine in drinking water in rabbits fed a high-fat diet (NAFLD/NASH model); type: in vivo; conditions: for mean AST value: control HFD 117.1 U/L
Excerpt: as §1
The study design included five groups of eight rabbits.
Observations during the study included twice weekly body weights, daily food and water consumption, and daily clinical observations. Blood samples were collected prior to the start of the study, and on weeks 2, 6, and 8 for a full panel of hematology parameters and a selected panel of serum chemistries, including ALT, AST, amylase, lipase, total cholesterol, triglycerides, LDH, HDL-cholesterol, and LDL-cholesterol.

[4] = tested on: intracellular cystine (circulating white blood cells); conditions: taken regularly; measured in circulating white blood cells; cited from earlier work
leukocyte cystine = conditions: cited from earlier work
[5] = tested on: obese children who had steatosis; conditions: vitamin E 400-1000 IU/day for 4-10 months, cited from earlier work
[6] = week 8, 250 mg/kg/day in drinking water
[7] = delivery of cysteamine to the small intestine

Compound: CC(=O)N[C@@H](CS)C(=O)O [N-acetylcysteine]
- aminotransferase levels and gamma-GT [1]: improvement

Compound: NCCS [cysteamine]
- LDH as % of the control HFD values on SD8 ([2]; 75 mg/kg/day IP Q8H): 33%
- LDH as % of the control HFD values on SD8 ([2]; 250 mg/kg/day IP Q8H): 59%
- LDL-cholesterol: % less of an increase than the HFD controls ([2]; SD8, 75 mg/kg/day IP Q8H): 23%
- total cholesterol: % less of an increase than the HFD controls ([2]; SD8, 75 mg/kg/day IP Q8H): 23%
- mean LDL-cholesterol value ([2]; SD8, 75 mg/kg/day IP Q8H): 210 mg/dL
- mean total cholesterol value ([2]; SD8, 75 mg/kg/day IP Q8H): 652 mg/dL
- mean LDH value ([2]; SD8, 75 mg/kg/day IP Q8H): 128 U/L
- increase in LDL-cholesterol compared to baseline values ([2]; SD8, 75 mg/kg/day IP Q8H): about 12 fold
- increase in total cholesterol over baseline value ([2]; SD8, 75 mg/kg/day IP Q8H): ~12 fold
- decrease in LDH compared to baseline values ([2]; SD8, 75 mg/kg/day IP Q8H): 1.2 fold
- LDL-cholesterol: % less of an increase than the HFD controls ([2]; SD8, 250 mg/kg/day IP Q8H): 45%
- decrease in mean AST value vs control HFD group ([2]; SD8, 250 mg/kg/day IP Q8H): 1.9 fold
- mean AST as % of the control HFD value ([2]; SD8, 250 mg/kg/day IP Q8H): 47%
- total cholesterol: % less of an increase than the HFD control values ([2]; SD8, 250 mg/kg/day IP Q8H): 59%
- mean LDL-cholesterol value ([2]; SD8, 250 mg/kg/day IP Q8H): 150.5 mg/dL
- mean total cholesterol value ([2]; SD8, 250 mg/kg/day IP Q8H): 347 mg/dL
- mean LDH value ([2]; SD8, 250 mg/kg/day IP Q8H): 77.5 U/L
- increase in LDL-cholesterol compared to baseline values ([2]; SD8, 250 mg/kg/day IP Q8H): about 14 fold
- increase in total cholesterol over baseline value ([2]; SD8, 250 mg/kg/day IP Q8H): ~7.5 fold
- mean AST value ([2]; SD8, 250 mg/kg/day IP Q8H, control HFD group 19.0 U/L): 10.0 U/L
- decrease in LDH compared to baseline values ([2]; SD8, 250 mg/kg/day IP Q8H): 3.1 fold
- body weights ([3]; cysteamine treated animals vs control HFD animals): parallel those of the control HFD animals
- animals that died on study or were sacrificed moribund ([3]; rabbit, in vivo, 75 mg/kg/day): Three
- animals sacrificed moribund ([3]; rabbit, in vivo, 250 mg/kg/day): One
- AST levels reduced compared to the HFD diet control animals ([3]; summary of both rabbit studies): 1.6- to 1.9 fold
- reductions of AST compared to the HFD diet control animals ([3]; summary of both rabbit studies): 37 to 47%
- mean AST value ([3]; week 8, 25 mg/kg/day in drinking water): 62.5 U/L
- increase in HDL-cholesterol over the HFD control mean value [3, 6]: 1.6 fold
- increase in HDL-cholesterol over the control standard diet value [3, 6]: 3.7 fold
- mean HDL-cholesterol value ([3]; week 8, 250 mg/kg/day in drinking water, HFD control 36.9, standard diet 15.7 mg/dL): 58.3 mg/dL
- mean LDH value ([3]; week 8, 250 mg/kg/day in drinking water, HFD control 375 U/L, standard diet control 125.6 U/L): 140 U/L
- mean AST value [3, 6]: 75.7 U/L
- change in LDH values compared to the Group 2 HFD controls ([3]; week 8, all three dose levels (25, 75, 250 mg/kg/day) in drinking water): decrease in LDH values at all three dose levels
- depletion of intracellular cystine [4]: up to 90%
- time to observed decrease in leukocyte cystine (leukocyte cystine; delivery into the small intestine): within an hour
- AUC (leukocyte cystine; [7]): increases
- Cmax (leukocyte cystine; [7]): increases

Compound: vitamin E
- mean AST levels after treatment ([5]; decreased from 104±61 IU/L, P<0.002): 33±11 IU/L
- mean ALT levels after treatment ([5]; decreased from 175±106 IU/L, P<0.01): 40±26 IU/L
